Measured values taken from US4466952A, “Compositions and process for the treatment of cancer” (Indiana University Foundation, priority 1983, dated 1984).

Legend:
[1] = system: infantile female white swiss mouse; assay: Uterotropic Assay compared to estrone as standard; type: in vivo
[2] = target: T1, Calf uterine cytosolic estrogen receptor (Bos taurus, UniProt P49884); assay: Estrogen Receptor assay, competition with 6,7-3H2-estradiol; type: binding
T1 construct: Calf uterine cytosolic estrogen receptor; from tissue; host or cells: calf uterus, cytosol
T1 sequence (P49884 1-596): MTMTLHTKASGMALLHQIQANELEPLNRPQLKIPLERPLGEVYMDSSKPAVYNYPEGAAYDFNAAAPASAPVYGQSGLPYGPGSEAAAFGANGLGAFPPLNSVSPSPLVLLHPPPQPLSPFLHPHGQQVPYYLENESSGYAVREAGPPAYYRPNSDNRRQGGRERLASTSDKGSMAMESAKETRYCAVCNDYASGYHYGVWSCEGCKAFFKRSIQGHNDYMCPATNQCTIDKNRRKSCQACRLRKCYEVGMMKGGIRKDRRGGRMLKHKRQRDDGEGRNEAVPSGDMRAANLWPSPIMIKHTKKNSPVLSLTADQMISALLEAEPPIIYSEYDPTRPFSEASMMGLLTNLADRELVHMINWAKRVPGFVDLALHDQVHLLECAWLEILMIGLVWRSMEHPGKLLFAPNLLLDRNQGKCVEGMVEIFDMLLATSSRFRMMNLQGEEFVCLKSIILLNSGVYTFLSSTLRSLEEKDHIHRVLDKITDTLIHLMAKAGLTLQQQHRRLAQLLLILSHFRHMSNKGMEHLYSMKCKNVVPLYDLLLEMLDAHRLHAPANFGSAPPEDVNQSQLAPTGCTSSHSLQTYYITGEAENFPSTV

[3] = as described for the prior art; cited from earlier work
[4] = system: estrogen receptors; conditions: as described for the prior art; cited from earlier work

(17β)-17-(1,2-dicarbadodecaboran(12)-1-yl)estra-1,3,5(10)-triene-3,17-diol 17-acetate [III]
uterotropic activity relative to estrone ([1]; 3×3 assay, 5-6 animals per dose, estrone as standard): about 80%
response compared to estrone (uterotropic) ([1]; 4×4 assay, 9-10 animals per dose, estrone as standard): 63%
uterotopic response of estrone ([1]; summary statement, relative to estrone): at least 63%
estrophilic activity relative to estradiol-17β 3-carboranylmethyl ether ([2]; compared with value reported in Steroids 37, 223 (1981)): about two
50% inhibition to binding ([2]; competition with 6,7-3H2-estradiol): 1 Mole equivalent

estradiol-17β 3-carboranylmethyl ether
uterotopic activity [3]: very low
estrophilic activity [4]: very low
